Reference: article PMC6402191 (Clinical and Translational Science, 2017)
Values joined by “and” are separate entries in the source; they are usually repeats but may differ in a detail not shown here. Identical values can stand only once. “Also recorded” adds a separate entry of the source.

How the values were obtained:
[1] = Clinical baricitinib-probenecid DDI study in healthy subjects; assay type: in vivo, human
[2] = Pharmacokinetic input parameters of the PBPK models; assay type: in vivo, human; details: fitted to match clinical data
OCT1 = target: T1, OCT1 (Homo sapiens, UniProt O15245); experiment: Baricitinib substrate study in OCT1-transfected HEK-PEAK cells; assay type: in vitro ADME
T1 sequence (O15245 1-554): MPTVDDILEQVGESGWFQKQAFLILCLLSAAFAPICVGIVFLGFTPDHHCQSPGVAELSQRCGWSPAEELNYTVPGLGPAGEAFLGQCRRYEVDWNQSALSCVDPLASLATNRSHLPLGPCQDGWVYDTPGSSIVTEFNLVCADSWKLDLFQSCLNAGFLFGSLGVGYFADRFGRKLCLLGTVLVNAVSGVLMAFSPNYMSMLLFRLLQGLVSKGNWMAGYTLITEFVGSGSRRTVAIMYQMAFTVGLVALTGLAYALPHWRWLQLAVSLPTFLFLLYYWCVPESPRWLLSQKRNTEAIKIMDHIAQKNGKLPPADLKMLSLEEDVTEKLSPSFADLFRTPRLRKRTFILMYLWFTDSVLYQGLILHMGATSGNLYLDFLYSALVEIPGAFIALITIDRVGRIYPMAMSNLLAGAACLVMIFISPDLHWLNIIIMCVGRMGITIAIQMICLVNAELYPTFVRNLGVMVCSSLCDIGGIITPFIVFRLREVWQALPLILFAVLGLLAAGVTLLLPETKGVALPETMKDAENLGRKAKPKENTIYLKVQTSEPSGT

OAT1 = target: T2, OAT1 (Homo sapiens, UniProt Q4U2R8); experiment: Baricitinib substrate study in OAT1-transfected HEK-PEAK cells; assay type: in vitro ADME
T2 sequence (Q4U2R8 1-563): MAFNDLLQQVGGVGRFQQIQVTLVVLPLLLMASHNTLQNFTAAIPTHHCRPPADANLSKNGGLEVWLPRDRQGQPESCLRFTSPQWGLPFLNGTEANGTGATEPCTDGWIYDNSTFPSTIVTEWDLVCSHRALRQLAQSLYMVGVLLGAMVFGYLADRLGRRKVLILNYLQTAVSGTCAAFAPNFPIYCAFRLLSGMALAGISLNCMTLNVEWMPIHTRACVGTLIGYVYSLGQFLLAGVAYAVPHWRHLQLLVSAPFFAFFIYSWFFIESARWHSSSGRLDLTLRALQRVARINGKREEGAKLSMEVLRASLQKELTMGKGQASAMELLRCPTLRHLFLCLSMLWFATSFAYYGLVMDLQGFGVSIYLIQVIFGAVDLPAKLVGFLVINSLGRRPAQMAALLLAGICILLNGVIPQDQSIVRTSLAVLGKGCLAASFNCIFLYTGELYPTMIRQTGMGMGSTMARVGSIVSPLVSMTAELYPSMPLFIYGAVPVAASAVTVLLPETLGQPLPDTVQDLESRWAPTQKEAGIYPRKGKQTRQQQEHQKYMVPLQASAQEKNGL

OATP1B3 = target: T3, OATP1B3 (Homo sapiens, UniProt Q9NPD5); experiment: Baricitinib substrate study in OATP1B3-transfected HEK-PEAK cells; assay type: in vitro ADME
T3 sequence (Q9NPD5 1-702): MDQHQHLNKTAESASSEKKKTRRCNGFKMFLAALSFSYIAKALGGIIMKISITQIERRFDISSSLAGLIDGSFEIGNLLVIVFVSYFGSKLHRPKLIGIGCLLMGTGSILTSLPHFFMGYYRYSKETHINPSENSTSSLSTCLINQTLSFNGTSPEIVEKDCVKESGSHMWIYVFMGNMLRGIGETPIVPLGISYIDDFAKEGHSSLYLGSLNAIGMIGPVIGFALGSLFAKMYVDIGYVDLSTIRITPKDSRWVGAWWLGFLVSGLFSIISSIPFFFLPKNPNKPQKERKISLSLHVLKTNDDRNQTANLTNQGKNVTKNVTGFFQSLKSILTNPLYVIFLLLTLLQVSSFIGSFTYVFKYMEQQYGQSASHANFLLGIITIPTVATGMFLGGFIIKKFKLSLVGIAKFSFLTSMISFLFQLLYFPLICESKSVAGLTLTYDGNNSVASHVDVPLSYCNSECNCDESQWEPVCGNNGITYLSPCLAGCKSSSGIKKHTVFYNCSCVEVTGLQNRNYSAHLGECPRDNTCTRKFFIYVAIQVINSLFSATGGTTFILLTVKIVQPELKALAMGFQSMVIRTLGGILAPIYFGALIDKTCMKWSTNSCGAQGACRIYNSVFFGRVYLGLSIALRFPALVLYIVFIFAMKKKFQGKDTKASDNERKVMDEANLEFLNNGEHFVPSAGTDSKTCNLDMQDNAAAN

[3] = Human mass balance study of baricitinib; assay type: in vivo
[4] = cited from earlier work
[5] = observed, listed as baricitinib

CCS(=O)(=O)N1CC(CC#N)(n2cc(-c3ncnc4[nH]ccc34)cn2)C1 [Baricitinib]
Ae(0‐48), arithmetic mean (SD) ([1]; 4 mg baricitinib + probenecid): 1.57 (0.191) mg
CL/F, geometric mean (CV) ([1]; 4 mg baricitinib + probenecid): 8.33 (14) L/h
Ae(0‐48), arithmetic mean (SD) ([1]; 4 mg baricitinib only): 2.60 (0.399) mg
CL/F, geometric mean (CV) ([1]; 4 mg baricitinib only): 16.9 (22) L/h
tolerability ([1]; healthy subjects, all drug-related treatment-emergent AEs mild): well tolerated
increase of half-life in the presence of probenecid ([1]; human, in vivo): 63%
AUC ([1]; human, plasma, oral, 4 mg): 236 ng·h/mL
Cmax ([1]; human, plasma, oral, 4 mg): 36.2 ng/mL
Tmax ([1]; human, plasma, oral, 4 mg): 1 h
half-life ([1]; human, plasma, oral, 4 mg): 7.28 h
CL renal ([1]; human, urine and plasma, oral, 4 mg): 183 mL/min
AUC(0‐∞) ratio of geometric LS means, baricitinib + probenecid : baricitinib only (90% CI) ([1]; observed): 2.03 (1.91, 2.16) and 2.03(1.91‐2.16)
CLr ratio of geometric LS means, baricitinib + probenecid : baricitinib only (90% CI) ([1]; observed): 0.313 (0.289, 0.339)
Cmax ratio of geometric LS means, baricitinib + probenecid : baricitinib only (90% CI) ([1]; observed): 1.03 (0.940, 1.13)
AUC(0‐∞) ratio of geometric LS means, baricitinib + probenecid : baricitinib only (90% CI) [1, 5]: twofold; also recorded: doubled
Cmax ratio of geometric LS means, baricitinib + probenecid : baricitinib only (90% CI) [1, 5]: 1.03
ka (first-order absorption rate constant) [2]: 1.2 h^‐1
OCT1 substrate (OCT1): not a substrate
OAT1 substrate (OAT1): not a substrate
OATP1B3 substrate (OATP1B3): not a substrate
Fa (fraction absorbed) ([3]; calculated from human mass balance study): 0.8
blood plasma ratio ([3]; human, blood and plasma, oral): 1.26
dose found as parent compound in feces ([3]; in vivo): 20 % of the dose
eliminated unchanged in urine [4]: 70 % of dose
renal clearance [4]: ~11 L/h
decrease in renal secretory clearance with cyclosporine ([4]; single 600 mg dose of cyclosporine): 30%
